Laboratory results as given in patent publication US11976043B1, “3-cyano-2-ethoxy-9-(2-nitrobenzylidene)-4-(2-nitrophenyl)-6,7,8,9-tetrahydro-5H-cyclohepta[b]pyridine as an antimicrobial compound” (KING FAISAL UNIVERSITY, priority 2023, dated 2024).

Key:
Settings in all cases: after 10, 20, 40 and 60 min at all dilutions 1:100, 1:200, 1:400, 1:800
Ps. aeruginosa = experiment: Antimicrobial testing by agar dilution, Ps. aeruginosa; type: cell-based, Pseudomonas aeruginosa
Description: (§1) The antimicrobial properties of the 3-cyano-2-ethoxy-9-(2-nitrobenzylidene)-4-(2-nitrophenyl)-6,7,8,9-tetrahydro-5H-cyclohepta[b]pyridine was studied by the method of agar dilution. Test solutions of each compound was prepared in concentration of 1% using dimethylformamide as a solvent then they are diluted in physiological solution to obtain the final experimental dilutions 1:100, 1:200, 1:400, 1:800. The effect of these substances are compared with furacillin in a controlable study. The testing microbes used were gram positive bacteria St. Aereus, gram negative bacteria E. coli, Ps. aeruginosa and Candida albicans fungi were taken.
(§2) The experiments used for this survey were meat-pentonlu agar (EPA) for cultivation of bacteria and Saburo environment for fungi. Each experiment used 1 ml of test solution on each plate 500 min. Add 2 drops of emulsified with microbes feel. All experimental samples were taken from the agar after 10, 20, 40, 60 minutes in the environment on the basis of Patrk planted. Bacteria were cultivated at a temperature of 37° C. for 1 day and the mushroom was kept in a thermostat for […] at a temperature of 28° C. in the. Then results were checked.

St. Aereus = experiment: Antimicrobial testing by agar dilution, St. Aereus; type: cell-based, Staphylococcus aureus
Description: as §1, §2

E. coli = experiment: Antimicrobial testing by agar dilution, E. coli; type: cell-based, Escherichia coli
Description: as §1, §2

Candida albicans = experiment: Antimicrobial testing by agar dilution, Candida albicans; type: cell-based
Description: as §1, §2

Measured: inhibition activity (in words)

CCOc1nc2c(c(-c3ccccc3[N+](=O)[O-])c1C#N)CCCCC2=Cc1ccccc1[N+](=O)[O-] [3-cyano-2-ethoxy-9-(2-nitrobenzylidene)-4-(2-nitrophenyl)-6,7,8,9-tetrahydro-5H-cyclohepta[b]pyridine]
most higher inhibition activity: all assays above
